The values below come from ChEMBL document CHEMBL4052697, “Chimeric analogs of human β-defensin 1 and θ-defensin disrupt pre-established bacterial biofilms” (2017).

By MBC is commonly meant the lowest tested concentration that kills the bacteria rather than only halting them.

Holding throughout (type): functional
For assay [1], the system named is Staphylococcus aureus. Kind of assay: Antibiofilm activity against pre-established 36 hrs old bacterial biofilms of Staphylococcus aureus NCTC 8530 assessed as reduction in number of viable bacterial cells incubated for 4 hrs by XTT assay. A general note: Tetrazolium dyes change colour on reduction, which living cells bring about.
For assay [2], the system named is Staphylococcus aureus. Kind of assay: Bactericidal activity against Staphylococcus aureus NCTC 8530 planktonic forms.
Assay [3] concerns Escherichia coli. Description: Bactericidal activity against Escherichia coli MG1655 planktonic forms.
Assay [4] concerns Staphylococcus aureus. Description: Antibiofilm activity against pre-established 36 hrs old bacterial biofilms of Staphylococcus aureus NCTC 8530 incubated for 4 hrs by XTT assay.
The test system of assay [5] is Escherichia coli. Kind of assay: Antibiofilm activity against pre-established 36 hrs old bacterial biofilms of Escherichia coli MG1655 incubated for 4 hrs by XTT assay.
Assay [6] relates to Escherichia coli. Kind of assay: Antibiofilm activity against pre-established 36 hrs old bacterial biofilms of Escherichia coli MG1655 incubated for 4 hrs Antibiofilm activity against pre-established 36 hrs old bacterial biofilms of Escherichia coli MG1655 incubated for 4 hrs by LIVE/DEAD BacLight staining based confocal microscopy.
Assay [7] relates to Staphylococcus aureus. Description: Antibiofilm activity against pre-established 36 hrs old bacterial biofilms of Staphylococcus aureus NCTC 8530 incubated for 4 hrs by […] LIVE/DEAD BacLight staining based confocal microscopy.

Values after ≈ are worked out from the molar mass of the structure shown. Active and inactive are the calls of the source. The rule behind the calls is not given here. Positions of bridges follow the written chain, without caps; N, C: chain ends. Non-standard residues stand in square brackets, D forms with d. Residues, ends and D or L forms follow the SMILES beside them.

Turning to `CC[C@@H](C)[C@H]1NC(=O)[C@H](CCCCN)NC(=O)[C@H]([C@@H](C)O)NC(=O)[C@H](Cc2ccccc2)NC(=O)[C@@H]([C@H](C)CC)NC(=O)[C@@H]2CCCN2C(=O)[C@@H](NC(=O)[C@H](C)N)CSSC[C@@H](C(=O)N[C@@H](CCCNC(=N)N)C(=O)O)NC(=O)[C@H](CCCCN)NC(=O)[C@H](C)NC(=O)[C@@H](CCCNC(=N)N)NC(=O)CNC(=O)[C@@H](CCCNC(=N)N)NC(=O)[C@H](Cc2ccc(O)cc2)NC(=O)[C@H]([C@@H](C)O)NC(=O)CNC(=O)[C@H](CCC(N)=O)NC1=O` (H-ACP[dI]FTK[dI]QGTY[dR]G[dR]AKCR-OH; disulfide 2-18), the MBEC entry in the assay with Staphylococcus aureus [1] is “Active”. The MBC in the assay on Staphylococcus aureus [2] and against Escherichia coli [3] was 5 µM (≈ 10.8 µg/mL) throughout. Besides, in the assay with Staphylococcus aureus [4], the MBEC entry was “inactive”.
As to `CCCCCCCCCCCCCC(=O)N[C@@H](CCC(=O)O)C(=O)N[C@@H](CC(C)C)C(=O)N[C@@H](CC(=O)O)C(=O)N[C@@H](CCCNC(=N)N)C(=O)N[C@H](C(=O)NCC(=O)N[C@@H](Cc1ccc(O)cc1)C(=O)NCC(=O)N[C@H](C(=O)N[C@@H](C)C(=O)N[C@@H](CCCNC(=N)N)C(=O)N[C@@H](CCCNC(=N)N)C(=O)N[C@H](CCCCN)C(=O)N[C@H](CCCCN)C(=O)N[C@@H](CCCNC(=N)N)C(=O)O)[C@@H](C)O)[C@@H](C)CC`, the MBC in the assay with Staphylococcus aureus [2] worked out at 10 µM (≈ 20.3 µg/mL); in the assay on Escherichia coli [3] it was 5 µM (≈ 10.1 µg/mL). Further, the MBEC entry with Staphylococcus aureus [4] and with Escherichia coli [5] was “inactive” in each case.
In the case of `CCCCCCCCCCCCCC(=O)N[C@@H](C)C(=O)N[C@@H](Cc1ccccc1)C(=O)N[C@H](C(=O)N[C@@H](CCCNC(=N)N)C(=O)N[C@@H](CCCNC(=N)N)C(=O)N[C@@H](CCCNC(=N)N)C(=O)N[C@@H](CO)C(=O)N[C@@H](Cc1ccc(O)cc1)C(=O)N[C@@H](CO)C(=O)N[C@H](C(=O)N[C@@H](CCC(=O)O)C(=O)N[C@@H](Cc1ccc(O)cc1)C(=O)N[C@@H](CO)C(=O)N[C@@H](Cc1ccc(O)cc1)C(=O)NCC(=O)N[C@H](C(=O)N[C@H](C(=O)N[C@H](C(N)=O)C(C)C)[C@@H](C)O)[C@@H](C)O)[C@@H](C)O)[C@@H](C)O`, the results for the MBC in the assay with Staphylococcus aureus [2] and in the assay on Escherichia coli [3] were 20 µM (≈ 47.1 µg/mL) and 10 µM (≈ 23.5 µg/mL), respectively. Further, the MBEC entry in the assay with Staphylococcus aureus [4] and in the assay with Escherichia coli [5] was “inactive” each time.
Consider `CCCCCCCCCCCC(=O)N[C@@H](C)C(=O)N[C@H](C(=O)N[C@@H](Cc1ccc(O)cc1)C(=O)N[C@@H](CCCNC(=N)N)C(=O)N[C@H](C(=O)NCC(=O)N[C@@H](CCCNC(=N)N)C(=O)N[C@@H](C)C(=O)N[C@H](C(=O)N[C@@H](CCCNC(=N)N)C(=O)N[C@@H](CCC(=O)O)C(=O)N[C@@H](CO)C(=O)N[C@@H](CC(C)C)C(=O)N[C@@H](CO)C(=O)NCC(=O)N[C@H](C(=O)N[C@@H](CCC(=O)O)C(=O)N[C@H](C(=O)N[C@@H](CO)C(=O)NCC(=O)N[C@@H](CCCNC(=N)N)C(=O)N[C@@H](CC(C)C)C(=O)N[C@@H](Cc1ccc(O)cc1)C(=O)N[C@@H](CCCNC(=N)N)C(=O)N[C@@H](CC(C)C)C(=O)N[C@@H](CCCNC(=N)N)C(=O)O)[C@@H](C)CC)C(C)C)[C@@H](C)O)[C@@H](C)O)[C@@H](C)O`, for which the results for the MBC with Staphylococcus aureus [2] and in the assay with Escherichia coli [3] were 2 µM (≈ 6.3 µg/mL) and 20 µM (≈ 63 µg/mL), respectively. Further, the MBEC entry in the assay on Staphylococcus aureus [4] and with Escherichia coli [5] was “inactive” throughout.
Take `CC[C@H](C)[C@@H]1NC(=O)[C@H](CCCCN)NC(=O)[C@H]([C@@H](C)O)NC(=O)[C@H](Cc2ccccc2)NC(=O)[C@H]([C@@H](C)CC)NC(=O)[C@@H]2CCCN2C(=O)[C@@H](NC(=O)[C@H](C)N)CSSC[C@@H](C(=O)O)NC(=O)[C@H]([C@@H](C)CC)NC(=O)[C@@H](CCCNC(=N)N)NC(=O)[C@H](CCCNC(=N)N)NC(=O)CNC(=O)[C@@H]([C@@H](C)CC)NC(=O)[C@H](CCCNC(=N)N)NC(=O)[C@H](CCCCN)NC(=O)[C@H](C)NC(=O)[C@H](CCCCN)NC(=O)CNC(=O)[C@H](CCCNC(=N)N)NC(=O)[C@H](Cc2ccc(O)cc2)NC(=O)[C@H]([C@@H](C)O)NC(=O)CNC(=O)[C@H](CCC(N)=O)NC1=O`: the outcome in the assay on Escherichia coli [6] and in the assay on Staphylococcus aureus [7] was Active. Further, the MBC with Staphylococcus aureus [2] worked out at 2 µM (≈ 5.47 µg/mL); in the assay on Escherichia coli [3] it was 1 µM (≈ 2.74 µg/mL). The compound further displayed an MBEC in the assay with Staphylococcus aureus [4] of 150 µM.
Regarding `CCCCCCCCCCCCCC(=O)N[C@@H](C)C(=O)N[C@H](C(=O)N[C@@H](Cc1ccc(O)cc1)C(=O)N[C@@H](CCCNC(=N)N)C(=O)N[C@H](C(=O)NCC(=O)N[C@@H](CCCNC(=N)N)C(=O)N[C@@H](C)C(=O)N[C@H](C(=O)N[C@@H](CCCNC(=N)N)C(=O)N[C@@H](CCC(=O)O)C(=O)N[C@@H](CO)C(=O)N[C@@H](CC(C)C)C(=O)N[C@@H](CO)C(=O)NCC(=O)N[C@H](C(=O)N[C@@H](CCC(=O)O)C(=O)N[C@H](C(=O)N[C@@H](CO)C(=O)NCC(=O)N[C@@H](CCCNC(=N)N)C(=O)N[C@@H](CC(C)C)C(=O)N[C@@H](Cc1ccc(O)cc1)C(=O)N[C@@H](CCCNC(=N)N)C(=O)N[C@@H](CC(C)C)C(=O)N[C@@H](CCCNC(=N)N)C(=O)O)[C@@H](C)CC)C(C)C)[C@@H](C)O)[C@@H](C)O)[C@@H](C)O`, the MBC in the assay with Staphylococcus aureus [2] was found to be 7.5 µM (≈ 23.8 µg/mL); in the assay on Escherichia coli [3], 5 µM (≈ 15.9 µg/mL). Besides, the MBEC result in the assay with Staphylococcus aureus [4] and in the assay with Escherichia coli [5] was “inactive” throughout.
On to `CCCCCCCCCCCC(=O)N[C@@H](C)C(=O)N[C@H](C(=O)N[C@@H](Cc1ccc(O)cc1)C(=O)N[C@H](CCCNC(=N)N)C(=O)N[C@H](C(=O)NCC(=O)N[C@H](CCCNC(=N)N)C(=O)N[C@@H](C)C(=O)N[C@H](C(=O)N[C@H](CCCNC(=N)N)C(=O)N[C@@H](CCC(=O)O)C(=O)N[C@@H](CO)C(=O)N[C@@H](CC(C)C)C(=O)N[C@@H](CO)C(=O)NCC(=O)N[C@H](C(=O)N[C@@H](CCC(=O)O)C(=O)N[C@H](C(=O)N[C@@H](CO)C(=O)NCC(=O)N[C@H](CCCNC(=N)N)C(=O)N[C@@H](CC(C)C)C(=O)N[C@@H](Cc1ccc(O)cc1)C(=O)N[C@H](CCCNC(=N)N)C(=O)N[C@@H](CC(C)C)C(=O)N[C@@H](CCCNC(=N)N)C(=O)O)[C@@H](C)CC)C(C)C)[C@@H](C)O)[C@@H](C)O)[C@@H](C)O`, for which the MBC against Staphylococcus aureus [2] was 20 µM (≈ 63 µg/mL); in the assay on Escherichia coli [3], 10 µM (≈ 31.5 µg/mL). The MBEC result with Staphylococcus aureus [4] and in the assay with Escherichia coli [5] was “inactive” throughout.
As to `CC[C@H](C)[C@H](NC(=O)[C@H](CCC(=O)O)NC(=O)[C@@H](NC(=O)CNC(=O)[C@H](CO)NC(=O)[C@H](CC(C)C)NC(=O)[C@H](CO)NC(=O)[C@H](CCC(=O)O)NC(=O)[C@@H](CCCNC(=N)N)NC(=O)[C@@H](NC(=O)[C@H](C)NC(=O)[C@@H](CCCNC(=N)N)NC(=O)CNC(=O)[C@@H](NC(=O)[C@@H](CCCNC(=N)N)NC(=O)[C@H](Cc1ccc(O)cc1)NC(=O)[C@@H](NC(=O)[C@H](C)N)[C@@H](C)O)[C@@H](C)O)[C@@H](C)O)C(C)C)C(=O)N[C@@H](CO)C(=O)NCC(=O)N[C@H](CCCNC(=N)N)C(=O)N[C@@H](CC(C)C)C(=O)N[C@@H](Cc1ccc(O)cc1)C(=O)N[C@H](CCCNC(=N)N)C(=O)N[C@@H](CC(C)C)C(=O)N[C@@H](CCCNC(=N)N)C(=O)O`, the MBC was more than 100 µM in the assay on Staphylococcus aureus [2] and 50 µM (≈ 148 µg/mL) in the assay on Escherichia coli [3]. Moreover, the MBEC result with Staphylococcus aureus [4] and in the assay with Escherichia coli [5] was “inactive” each time.
As to `CC[C@H](C)[C@@H]1NC(=O)[C@H](CCCCN)NC(=O)[C@H]([C@@H](C)O)NC(=O)[C@H](Cc2ccccc2)NC(=O)[C@H]([C@@H](C)CC)NC(=O)[C@@H]2CCCN2C(=O)[C@@H](NC(=O)[C@H](C)N)CSSC[C@@H](C(=O)N[C@@H](CCCNC(=N)N)C(=O)O)NC(=O)[C@H](CCCCN)NC(=O)[C@H](C)NC(=O)[C@H](CCCNC(=N)N)NC(=O)CNC(=O)[C@H](CCCNC(=N)N)NC(=O)[C@H](Cc2ccc(O)cc2)NC(=O)[C@H]([C@@H](C)O)NC(=O)CNC(=O)[C@H](CCC(N)=O)NC1=O` (H-ACPIFTKIQGTYRGRAKCR-OH; disulfide 2-18), in the assay on Staphylococcus aureus [1], the MBEC result was “Active”. Also, the MBC with Staphylococcus aureus [2] and in the assay with Escherichia coli [3] was 5 µM (≈ 10.8 µg/mL) each time.
With `CCCCCCCCCCCCCC(=O)N[C@@H](C)C(=O)N[C@@H](Cc1ccccc1)C(=O)N[C@H](C(=O)N[C@H](CCCNC(=N)N)C(=O)N[C@H](CCCNC(=N)N)C(=O)N[C@H](CCCNC(=N)N)C(=O)N[C@@H](CO)C(=O)N[C@@H](Cc1ccc(O)cc1)C(=O)N[C@@H](CO)C(=O)N[C@H](C(=O)N[C@@H](CCC(=O)O)C(=O)N[C@@H](Cc1ccc(O)cc1)C(=O)N[C@@H](CO)C(=O)N[C@@H](Cc1ccc(O)cc1)C(=O)NCC(=O)N[C@H](C(=O)N[C@H](C(=O)N[C@H](C(N)=O)C(C)C)[C@@H](C)O)[C@@H](C)O)[C@@H](C)O)[C@@H](C)O`, the MBC with Staphylococcus aureus [2] amounted to 50 µM (≈ 118 µg/mL); in the assay with Escherichia coli [3], 20 µM (≈ 47.1 µg/mL). Moreover, the MBEC result with Staphylococcus aureus [4] and with Escherichia coli [5] was “inactive” each time.
With `CCCCCCCCCCCCCC(=O)N[C@@H](CCC(=O)O)C(=O)N[C@@H](CC(C)C)C(=O)N[C@@H](CC(=O)O)C(=O)N[C@H](CCCNC(=N)N)C(=O)N[C@H](C(=O)NCC(=O)N[C@@H](Cc1ccc(O)cc1)C(=O)NCC(=O)N[C@H](C(=O)N[C@@H](C)C(=O)N[C@H](CCCNC(=N)N)C(=O)N[C@H](CCCNC(=N)N)C(=O)N[C@@H](CCCCN)C(=O)N[C@@H](CCCCN)C(=O)N[C@@H](CCCNC(=N)N)C(=O)O)[C@@H](C)O)[C@@H](C)CC`, the values for the MBC against Staphylococcus aureus [2] and in the assay with Escherichia coli [3] were 10 µM (≈ 20.3 µg/mL) and 5 µM (≈ 10.1 µg/mL), respectively. Besides, the MBEC result in the assay with Staphylococcus aureus [4] and with Escherichia coli [5] was “inactive” throughout.
